* marks the point of attachment. Dansyl = CN(C)c1cccc2c(S(=O)(=O)*)cccc12
What was measured:
[1] = target: T1, human CP4H1 (Homo sapiens, UniProt P13674); test: Inhibition of human CP4H1 activity by alkene isosteres; type: biochemical; details: for inhibition of catalysis by human CP4H: dansyl isostere 100 µM, dansylGPPGOEt 0.50 mM, pH 7.8, 30 °C, mean (± SD) of three independent experiments; for inhibition of catalysis by human CP4H / relative inhibitory potency, cis versus trans Cbz isosteres: α-ketoglutarate 1.00 mM; for relative inhibitory potency, cis versus trans Cbz isosteres: Cbz isostere 1.00 mM, CbzGPPGOEt 1.00 mM as substrate, pH 7.8, three independent experiments
T1 sequence (P13674 18-534): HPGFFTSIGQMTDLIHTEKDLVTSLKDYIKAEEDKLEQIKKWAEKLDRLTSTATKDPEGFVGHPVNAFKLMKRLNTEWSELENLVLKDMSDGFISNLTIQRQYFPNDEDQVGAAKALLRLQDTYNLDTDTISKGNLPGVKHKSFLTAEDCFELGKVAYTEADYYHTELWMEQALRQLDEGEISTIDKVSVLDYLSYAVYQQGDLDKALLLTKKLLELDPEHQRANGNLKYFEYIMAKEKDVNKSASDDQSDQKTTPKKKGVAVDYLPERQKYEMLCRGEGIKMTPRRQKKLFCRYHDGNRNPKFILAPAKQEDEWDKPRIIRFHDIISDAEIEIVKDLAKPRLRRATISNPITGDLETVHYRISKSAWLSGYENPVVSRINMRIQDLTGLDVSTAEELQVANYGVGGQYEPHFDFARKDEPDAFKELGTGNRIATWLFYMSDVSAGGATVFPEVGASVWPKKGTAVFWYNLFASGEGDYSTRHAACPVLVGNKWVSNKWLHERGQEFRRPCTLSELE
T1 sequence (P07237 18-508 partner): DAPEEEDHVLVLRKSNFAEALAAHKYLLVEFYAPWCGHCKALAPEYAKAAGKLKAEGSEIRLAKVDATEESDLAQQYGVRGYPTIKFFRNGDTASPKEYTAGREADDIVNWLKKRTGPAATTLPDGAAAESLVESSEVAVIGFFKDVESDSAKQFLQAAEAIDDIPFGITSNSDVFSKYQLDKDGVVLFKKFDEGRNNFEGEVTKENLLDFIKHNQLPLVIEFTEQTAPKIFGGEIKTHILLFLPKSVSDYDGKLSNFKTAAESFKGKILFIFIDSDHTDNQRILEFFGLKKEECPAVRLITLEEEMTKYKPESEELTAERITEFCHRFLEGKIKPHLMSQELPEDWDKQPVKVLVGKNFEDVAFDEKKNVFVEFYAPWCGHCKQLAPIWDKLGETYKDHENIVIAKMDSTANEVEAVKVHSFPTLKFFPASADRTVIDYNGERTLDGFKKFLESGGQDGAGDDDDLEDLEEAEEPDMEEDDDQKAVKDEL

[2] = tested on: C. reinhardtii P4H-1 (CrP4H-1); details: isostere 100 µM, dansylGPPGOEt 0.50 mM, α-ketoglutarate 1.00 mM, NHis6-CrP4H-1 1.2 µM, 30 °C, 1 h, UPLC; three independent experiments
[3] = tested on: C. reinhardtii P4H-1 (CrP4H-1); test: UPLC assay of dansyl peptides as substrates; type: biochemical, Chlamydomonas reinhardtii; details: for hydroxylation of dansyl isosteres by CrP4H-1: UPLC, data not shown
[4] = tested on: CP4H; details: a CP4H; cited from earlier work
[5] = target: T1, human CP4H1; test: UPLC assay of model peptides and isosteres as substrates; type: biochemical

With `CCOC(=O)CNC(=O)[C@@H]1CCC/C1=C\[C@@H]1CCCN1C(=O)CNS(=O)(=O)c1cccc2c(N(C)C)cccc12` [Compound 3, dansylGPtransPGOEt] the IC50 [1] was 410 ± 30 µM, the “inhibition of catalysis by human CP4H” value [1] was “inhibitors of catalysis by human CP4H” and the “inhibition of CrP4H-1” value [2] was “served as inhibitors of CrP4H-1”. For the same compound, the “hydroxylation of dansyl isosteres by CrP4H-1” value [3] was “did not observe hydroxylation”.
For `CCOC(=O)CNC(=O)[C@@H]1CCC/C1=C/[C@@H]1CCCN1C(=O)CNS(=O)(=O)c1cccc2c(N(C)C)cccc12` [Compound 5, dansylGPcisPGOEt], the IC50 [1] was 75 ± 6 µM, the Ki [1] was 56 ± 13 µM and the “inhibition of catalysis by human CP4H” value [1] was “inhibitors of catalysis by human CP4H”. For the same compound, the “inhibition of CrP4H-1” value [2] was “served as inhibitors of CrP4H-1” and the “hydroxylation of dansyl isosteres by CrP4H-1” value [3] was “did not observe hydroxylation”.
In the case of (ProProGly)10, the “mode of substrate inhibition versus α-ketoglutarate” value [4] is listed as “competitive with the cosubstrate α-ketoglutarate” and the “substrate inhibition during turnover of longer collagen mimetic peptide” value [4] is listed as “Substrate inhibition had been observed”.
With CbzGPcisPGOEt [Compound 6] the “relative inhibitory potency, cis versus trans Cbz isosteres” value [1] was “the cis isostere inhibits with greater potency than does the trans isostere”.
In the case of CbzGPtransPGOEt [Compound 4], the “relative inhibitory potency, cis versus trans Cbz isosteres” value [1] is reported as “the cis isostere inhibits with greater potency than does the trans isostere”.
For “dansylGlyProProGlyOEt (Dansyl-GPPG-OEt; SMILES CCOC(=O)CNC(=O)[C@@H]1CCCN1C(=O)[C@@H]1CCCN1C(=O)CNS(=O)(=O)c1cccc2c(N(C)C)cccc12) [Compound 1]”, the Ki ([5]; read-out: Ki (dissociation constant for substrate binding in an inhibitory manner), substrate-inhibition fit (R^2 = 0.98), dansylGPPGOEt 58–1860 µM, α-ketoglutarate 1.00 mM, CP4H1 100 nM, pH 7.8, 30 °C, 15 min, UPLC A289, triplicate) was 300 ± 100 µM.
In the case of dansylGlyProProGlyOEt [Compound 1], the “kinetic pattern of turnover (CrP4H-1)” value ([3]; dansylGPPGOEt 212–2120 µM, α-ketoglutarate 1.00 mM) is reported as “substrate inhibition phenomenon similar to that observed for human CP4H1”, the “kinetic pattern of turnover” value ([5]; dansylGPPGOEt 58–1860 µM, α-ketoglutarate 1.00 mM, pH 7.8, 30 °C) is reported as “substrate inhibition” and the “substrate inhibition at saturating α-ketoglutarate” value ([5]; saturating concentrations of α-ketoglutarate, human CP4H1) is reported as “observed even at saturating concentrations of α-ketoglutarate”.

Source: publication PMC5225157 (Biochemistry, 2016)
